Tests used:
[1] = test system: HIF-1α; test: RT-qPCR of HIF-1α and HIF-1α target genes in CD4+ memory T cells; format: cell-based, human
Description: Total RNA was prepared using TRIzol reagent (Life Technologies, Grand Island, NY), followed by cDNA synthesis (Promega, Madison, WI), followed by real-time quantitative RT-PCR with a CFX system (Bio-Rad, Hercules, CA) using SensiFAST SYBR® Lo-ROX (Bioline, London. UK). Gene expression levels were normalized for […] expression using the comparative CT method (ΔΔCT).

[2] = test system: human CD4+ naive T cells; test: Cell viability by 7-AAD staining; format: cell-based; conditions: Bi2 10 μM, 4 days
Description: To analyze T cell proliferative capacity, purified isolated human CD4+ T cells were labeled with 1 μM carboxyfluorescein succinimidyl ester (CFSE; Invitrogen, Waltham, MA, USA) and then stimulated with anti-CD3/CD28 antibody coated microbeads for 4 days at 37° C. Cells were stained with 7AAD (BD Biosciences) for 10 minutes to distinguish dead cells and the extent of CFSE dilution in 7AAD-cells was measured by BD LSRFortessa to analyze proliferative capacity. Antibodies listed in Table 2 and previously known BD LSRFortessa cell analyzers were used.

Question: What does the source list for O=C(NNS(=O)(=O)c1ccccc1C(F)(F)F)c1cc2cc(Cl)ccc2o1 [Bi2, BCATc inhibitor 2]?
Answer: HIF-1α mRNA expression ([1]; 4 hours after TCR stimulation): reduced; expression of SCL2A1, LDHA and PGK1 mRNA (HIF-1α target genes) ([1]; 72 hours of TCR stimulation): reduced; viability of activated CD4+ naive T cells [2]: no significant effect
